molecular target: T1, IRAK3 (Homo sapiens, UniProt Q9Y616); assay: IRAK3 biochemical binding assay (LanthaScreen Eu Kinase Binding, TR-FRET)
T1 construct: IRAK Endogenous HTRF Degradation Assay; endogenous in cells
T1 sequence (Q9Y616 1-596): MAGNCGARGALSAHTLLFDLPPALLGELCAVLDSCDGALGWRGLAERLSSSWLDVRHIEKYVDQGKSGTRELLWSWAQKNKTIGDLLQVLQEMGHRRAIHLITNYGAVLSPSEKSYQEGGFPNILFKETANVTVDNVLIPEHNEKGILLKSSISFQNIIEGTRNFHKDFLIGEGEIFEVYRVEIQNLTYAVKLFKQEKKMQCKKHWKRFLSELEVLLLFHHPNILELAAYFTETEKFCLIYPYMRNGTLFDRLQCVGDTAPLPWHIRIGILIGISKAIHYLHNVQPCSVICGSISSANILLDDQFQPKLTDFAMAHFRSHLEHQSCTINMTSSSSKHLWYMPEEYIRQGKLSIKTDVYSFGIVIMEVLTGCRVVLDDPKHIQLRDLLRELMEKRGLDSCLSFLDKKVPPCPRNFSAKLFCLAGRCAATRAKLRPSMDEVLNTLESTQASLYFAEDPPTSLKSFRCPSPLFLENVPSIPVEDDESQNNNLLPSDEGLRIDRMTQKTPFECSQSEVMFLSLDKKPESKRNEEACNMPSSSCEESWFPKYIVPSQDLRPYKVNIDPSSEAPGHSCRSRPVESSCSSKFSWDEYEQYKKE
In short: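 TR-FRET tracer-displacement binding with 10 nM IRAK3, 2 nM Eu-anti-GST antibody and 10 nM tracer in 50 mM HEPES pH 7.4, MgCl2, 1 mM EGTA, 0.01% Brij-35. Compounds in 3-fold dilutions, 1 h at room temperature. 665/615 nm ratio gave % inhibition; IC50 and Hill slope from dose-response fit.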

Row | Structure (SMILES) | IC50
1 | Cc1cccc(-c2cnc(Nc3cnn(C4CCN(CC(=O)N5CCN(c6ccc7c(c6)C(=O)N(C6CCC(=O)NC6=O)C7=O)CC5)CC4)c3)c3nccn23)c1 (stereo not shown) [Compound 1, 2-(2,6-dioxopiperidin-3-yl)-5-(4-(2-(4-(4-((5-(m-tolyl)imidazo[1,2-a]pyrazin-8-yl)amino)-1H-pyrazol-1-yl)piperidin-1-yl)acetyl)piperazin-1-yl)isoindoline-1,3-dione] | 5 nM
2 | Cc1cc(-c2ccc(Nc3cnn(C4CCN(CCN5CCN(c6ccc(C7CCC(=O)NC7=O)cc6)CC5)CC4)c3)c3nccn23)c(F)cc1F (stereo not shown) [Compound 12, 3-(4-(4-(2-(4-(4-((5-(2,4-difluoro-5-methylphenyl)imdazo [1,2-a]pyridin-8-yl)amino)-1H-pyrazol-1-yl)piperidin-1-yl)ethyl)piperazin-1-yl)phenyl) piperidine-2,6-dione] | 2 nM
3 | Cc1cc(-c2cnc(Nc3cnn([C@H]4CC[C@H](CCN5CCN(c6ccc([C@]7(C)CCC(=O)NC7=O)cc6)CC5)CC4)c3)c3nccn23)c(F)cc1F [Compound 82, (S)-3-(4-(4-(2-((trans)-4-(4-((5-(2,4-difluoro-5-methylphenyl)imidazo[1,2-a]pyrazin-8-yl)amino)-1H-pyrazol-1-yl)cyclohexyl)ethyl)piperazin-1-yl)phenyl)-3-methylpiperidine-2,6-dione] | 17 nM
4 | Cc1cc(-c2cnc(Nc3cnn([C@H]4CC[C@@H](CCN5CCN(c6ccc(C7CCC(=O)NC7=O)cc6)CC5)CC4)c3)c3nccn23)c(F)cc1F (stereo partly drawn) [Compound 14, 3-(4-(4-(2-((cis)-4-(4-((5-(2,4-difluoro-5-methylphenyl)imidazo[1,2-a]pyrazin-8-yl)amino)-1H-pyrazol-1-yl)cyclohexyl)ethyl)piperazin-1-yl)phenyl) piperidine-2,6-dione] | 4.3 nM
5 | Cc1cc(-c2cnc(Nc3cnn([C@H]4CC[C@H](CCN5CCN(c6ccc([C@@]7(C)CCC(=O)NC7=O)cc6)CC5)CC4)c3)c3nccn23)c(F)cc1F [Compound 81, (R)-3-(4-(4-(2-((trans)-4-(4-((5-(2,4-difluoro-5-methylphenyl)imidazo[1,2-a]pyrazin-8-yl)amino)-1H-pyrazol-1-yl)cyclohexyl)ethyl)piperazin-1-yl)phenyl)-3-methylpiperidine-2,6-dione] | 10 nM
6 | Cc1cc(-c2cnc(Nc3cnn(C4CCN(CC(=O)N5CCN(c6ccc7c(c6)C(=O)N(C6CCC(=O)NC6=O)C7)CC5)CC4)c3)c3nccn23)c(F)cc1F (stereo not shown) [Compound 18, 3-(6-(4-(2-(4-(4-((5-(2,4-difluoro-5-methylphenyl)imidazo[1,2-a]pyrazin-8-yl)amino)-1H-pyrazol-1-yl)piperidin-1-yl)acetyl)piperazin-1-yl)-1-oxoisoindolin-2-yl)piperidine-2,6-dione] | 0.5 nM
7 | Cc1cc(-c2cnc(Nc3cnn(C4CCN(CCN5CCN(c6ccc([C@]7(C)CCC(=O)NC7=O)cc6)CC5)CC4)c3)c3nccn23)c(F)cc1F [Compound 76, (S)-3-(4-(4-(2-(4-(4-((5-(2,4-difluoro-5-methylphenyl)imdazo [1,2-a]pyrazin-8-yl)amino)-1H-pyrazol-1-yl)piperidin-1-yl)ethyl)piperazin-1-yl)phenyl)-3-methylpiperidine-2,6-dione] | 1.7 nM
8 | Cc1cc(-c2cnc(Nc3cnn(C4CCN(CCN5CCN(c6ccc(C7CCC(=O)NC7=O)cc6)C[C@H]5C)CC4)c3)c3nccn23)c(F)cc1F (stereo partly drawn) [Compound 9, 3-(4-((R)-4-(2-(4-(4-((5-(2,4-difluoro-5-methylphenyl)imdazo [1,2-a]pyrazin-8-yl)amino)-1H-pyrazol-1-yl)piperidin-1-yl)ethyl)-3-methylpiperazin-1-yl)phenyl) piperidine-2,6-dione] | 1.1 nM
9 | Cc1cccc(-c2cnc(Nc3cnn(C4CCN(CC(=O)N5CCN(c6ccc7c(c6)CN(C6CCC(=O)NC6=O)C7=O)CC5)CC4)c3)c3nccn23)c1 (stereo not shown) [Compound 19, 3-(1-oxo-5-(4-(2-(4-(4-((5-(m-tolyl)imidazo[1,2-a]pyrazin-8-yl)amino)-1H-pyrazol-1-yl)piperidin-1-yl)acetyl)piperazin-1-yl)isoindolin-2-yl)piperidine-2,6-dione] | 1.8 nM
10 | O=C1CCC(c2ccc(N3CCN(CCN4CCC(n5cc(Nc6ncc(-c7cccc(F)c7)n7ccnc67)cn5)CC4)CC3)cc2)C(=O)N1 (stereo not shown) [Compound 80, 3-(4-(4-(2-(4-(4-((5-(3-fluorophenyl)imidazo [1,2-a]pyrazin-8-yl)amino)-1H-pyrazol-1-yl)piperidin-1-yl)ethyl)piperazin-1-yl)phenyl) piperidine-2,6-dione] | 140 nM
11 | O=C1CCC(c2ccc(N3CCN(CCN4CCC(n5cc(Nc6ncc(-c7ccc(F)cc7)n7ccnc67)cn5)CC4)CC3)cc2)C(=O)N1 (stereo not shown) [Compound 74, 3-(4-(4-(2-(4-(4-((5-(4-fluorophenyl)imidazo [1,2-a]pyrazin-8-yl)amino)-1H-pyrazol-1-yl)piperidin-1-yl)ethyl)piperazin-1-yl)phenyl) piperidine-2,6-dione] | 5.6 nM

More lines, in order of falling IC50, values ahead:

Row | IC50 | Structure (SMILES)
12 | 8.9 nM | Cc1cc(-c2cnc(Nc3cnn([C@H]4CC[C@H](CCN5CCN(c6ccc(C7CCC(=O)NC7=O)cc6)CC5)CC4)c3)c3nccn23)c(F)cc1F (stereo partly drawn) [Compound 11, 3-(4-(4-(2-((trans)-4-(4-((5-(2,4-difluoro-5-methylphenyl)imidazo[1,2-a]pyrazin-8-yl)amino)-1H-pyrazol-1-yl)cyclohexyl)ethyl)piperazin-1-yl)phenyl)piperidine-2,6-dione]
13 | 6.1 nM | Cc1cc(-c2cnc(Nc3cnn(C4CCN(CCN5CCN(c6cccc(C7CCC(=O)NC7=O)c6)CC5)CC4)c3)c3nccn23)c(F)cc1F (stereo not shown) [Compound 31, 3-(3-(4-(2-(4-(4-((5-(2,4-difluoro-5-methylphenyl)imdazo [1,2-a]pyrazin-8-yl)amino)-1H-pyrazol-1-yl)piperidin-1-yl)ethyl)piperazin-1-yl)phenyl) piperidine-2,6-dione]
14 | 4.2 nM | Cc1cccc(-c2cnc(Nc3cnn(C4CCN(CCN5CCN(c6ccc7c(c6)C(=O)N(C6CCC(=O)NC6=O)C7=O)CC5)CC4)c3)c3nccn23)c1 (stereo not shown) [Compound 2, 2-(2,6-dioxopiperidin-3-yl)-5-(4-(2-(4-(4-((5-(m-tolyl)imidazo[1,2-a]pyrazin-8-yl)amino)-1H-pyrazol-1-yl)piperidin-1-yl)ethyl)piperazin-1-yl)isoindoline-1,3-dione]
15 | 2.8 nM | Cc1cc(-c2cnc(Nc3cnn([C@H]4CC[C@@H](CN5CCN(c6ccc(C7CCC(=O)NC7=O)cc6)CC5)CC4)c3)c3nccn23)c(F)cc1F (relative stereo) [Compound 71, 3-(4-(4-(((cis)-4-(4-((5-(2,4-difluoro-5-methylphenyl)imidazo[1,2-a]pyrazin-8-yl)amino)-1H-pyrazol-1-yl)cyclohexyl)methyl)piperazin-1-yl)phenyl) piperidine-2,6-dione]
16 | 1.3 nM | Cc1cccc(-c2cnc(Nc3cnn(C4CCN(CCCCN5CCN(c6ccc(C7CCC(=O)NC7=O)cc6)CC5)CC4)c3)c3nccn23)c1 (stereo not shown) [Compound 3, 3-(4-(4-(4-(4-(4-((5-(m-tolyl)imidazo[1,2-a]pyrazin-8-yl)amino)-1H-pyrazol-1-yl)piperidin-1-yl)butyl)piperazin-1-yl)phenyl) piperidine-2,6-dione]

— patent US20260216347A1, “Substituted Imidazo-Based Compounds as Ligand Directed Degraders of IRAK3” (Celgene Corporation, priority 2022, published 2026)
